Converted amounts (≈) assume the structure as drawn. Read-outs that look alike come from different tables or passages of the source.
How the values were obtained:
[1] = test system: S. enterica subsp. Enterica (1.1114); experiment: MIC, broth microdilution (CLSI); type: cell-based, Salmonella enterica subsp. enterica; conditions: Salmonella enterica
Text: (§1) Staphylococcus aureus ATCC25923 and Escherichia coli ATCC25922 were obtained from the American Type Culture Collection (ATCC, Manassas, VA, USA). The Methicillin-resistant S. aureus (MRSA) clinical isolate MRSA-4, previously confirmed as mecA-positive and characterized for its antibiotic resistance profile ([Sun et al., 2023]), was used in this study. Staphylococcus epidermidis (GDMCC 1.143), Enterococcus faecalis (GDMCC 1.164), and Salmonella enterica subsp. enterica (GDMCC 1.1114) were obtained from the Guangdong Microbial Culture Collection Center (GDMCC, Guangzhou, China). The Pseudomonas aeruginosa PA14 strain was kindly provided by Professor Min Wu (Southwest Medical University, China). All bacterial strains were routinely cultured in Mueller-Hinton broth (MHB) or Luria-Bertani (LB) broth medium at 37°C with shaking at 200 rpm. Vancomycin was purchased from Solarbio Science & Technology Co., Ltd. (Beijing, China), and oxacillin was obtained from Taiji Group Hengsheng Pharmaceutical Co., Ltd. (Chengdu, China). The polyclonal rabbit primary anti-body to FtsZ was purchased from Abcam PLC (Cambridge, UK). Alexa488-conjugated goat anti-rabbit IgG was purchased from ZSGB-BIO Biotechnology (Beijing, China). DAPI staining solution was purchased from Beyotime Biotechnology (Shanghai, China).
(§2) The minimum inhibitory concentrations (MICs) of the test compounds (AA, MA, and UA) were determined using the standard broth microdilution method in accordance with the Clinical and Laboratory Standards Institute (CLSI) guidelines ([Humphries et al., 2021]). Bacteria were cultured in MHB or LB broth at 37°C with shaking (200 rpm) to the logarithmic phase, then diluted to a final density of 1 × 10^6 CFU/mL. Test compounds (dissolved in DMSO) and positive controls (vancomycin and oxacillin) were diluted in MHB and serially twofold diluted in 96-well plates. Each well was inoculated with 100 μL of bacterial suspension (1 × 10^6 CFU/mL), yielding a final bacterial density of 5 × 10^5 CFU/mL and a total volume of 200 μL. The final concentrations tested were 128 to 1 μg/mL for AA, MA, and UA; 16 to 0.5 μg/mL for vancomycin; and 64 to 0.0625 μg/mL for oxacillin. DMSO was used as a solvent control. Plates were incubated statically at 37°C for 18–24 h. After incubation, the OD600 was measured using a microplate reader (SpectraMax i3x, Molecular Devices, CA, USA). The MIC was defined as the lowest compound concentration that caused ≥ 90% inhibition of bacterial growth compared to the drug-free growth control. All tests were performed in three independent biological replicates.
(§3) Following the isolation and identification of AA, MA, and UA from ECPL, we evaluated their antibacterial activity and spectrum. The MICs of the compounds were determined against MRSA-4, S. aureus ATCC25923, S. epidermidis, and E. faecalis (Gram-positive), as well as P. aeruginosa PA14, E. coli ATCC25922, and S. enterica subsp. Enterica (Gram-negative) using the standard broth microdilution method in accordance with CLSI guidelines ([Humphries et al., 2021]).

MRSA-4 [2] = experiment: MIC, broth microdilution (CLSI); type: cell-based, Methicillin-resistant S. aureus; conditions: Staphylococcus aureus
Text: as §1, §2, §3

S. epidermidis (1.143) = experiment: MIC, broth microdilution (CLSI); type: cell-based; conditions: Staphylococcus epidermidis
Text: as §1, §2, §3

E. faecalis = experiment: MIC, broth microdilution (CLSI); type: cell-based; conditions: Enterococcus faecalis
Text: as §1, §2, §3

P. aeruginosa PA14 = experiment: MIC, broth microdilution (CLSI); type: cell-based; conditions: Pseudomonas aeruginosa
Text: as §1, §2, §3

S. aureus ATCC25923 [3] = experiment: MIC, broth microdilution (CLSI); type: cell-based; conditions: Staphylococcus aureus
Text: as §1, §2, §3

E. coli ATCC25922 = experiment: MIC, broth microdilution (CLSI); type: cell-based; conditions: Escherichia coli
Text: as §1, §2, §3

MRSA-4 [4] = experiment: Time-dependent killing assay; type: cell-based, Methicillin-resistant S. aureus; conditions: 2 × MIC
Experimental: An overnight culture of MRSA-4 was diluted 1:100 in fresh MHB and incubated at 37°C with shaking (200 rpm) until reaching mid-log phase (OD600 = 0.4–0.6). The culture was then adjusted to 1 × 10^6 CFU/mL and treated with AA, MA, or UA at concentrations of 1×, 2×, and 4 × MIC. 2 × MIC of vancomycin was used as a positive control, and an equivalent volume of DMSO served as the negative control. The cultures were incubated at 37°C with shaking (200 rpm) during the assay. At designated time points (0, 1, 2, 4, 8, and 24 h), samples were collected, serially diluted tenfold in sterile PBS, and 100 μL of appropriate dilutions were plated on LB agar. Plates were incubated at 37°C for 18–24 h, and viable bacteria were quantified. All experiments were performed in biological triplicates.
We next performed time-kill kinetics assays to characterize the time-dependent antibacterial effects of AA, MA, and UA against MRSA-4. Bacterial cultures were exposed to AA, MA, and UA at 1×, 2×, and 4 × their respective MICs, and viable CFU were counted at designated time points (0, 1, 2, 4, 8, and 24 h). As shown in the time-kill curves (Figure 1), treatment with 1 × or 2 × MIC of AA, MA, or UA led to an initial reduction in bacterial load within the first 2 h.

S. aureus ATCC25923 [5] = experiment: SEM analysis, cell long axis; type: cell-based, Staphylococcus aureus; conditions: 2 × MIC, 2 h, mean ± SD, PBS control 0.52 ± 0.05
Experimental: (§4) Scanning electron microscopy (SEM) was used to observe the morphological changes in bacterial cells treated with the isolated compounds. S. aureus ATCC 25923 and MRSA-4 were grown in MHB to mid-log phase (OD600 = 0.4–0.6) as previously described. The bacteria cultures were treated with AA, MA, or UA at 2 × MIC for 2 h at 37°C with shaking at 150 rpm. Untreated cultures (PBS group) served as the growth control. After incubation, bacterial cells were harvested by centrifugation and washed three times with PBS (pH 7.2). Coverslips (8 mm diameter) were cleaned with absolute ethanol under ultrasonication, air-dried, immersed in 0.1% (w/v) chitosan solution (dissolved in 1% acetic acid) for 5 s, and air-dried again at room temperature ([Su et al., 2022]). A 25 μL aliquot of the washed bacterial suspension was added to each coverslip and allowed to adhere for 1 h at room temperature. Adhered cells were fixed with 1 mL of 2.5% (v/v) glutaraldehyde at 4°C overnight. Fixed samples were rinsed 2–3 times with PBS (5 min per rinse), then dehydrated through a graded ethanol series: 50, 70, and 90% ethanol (each once for 5 min), followed by 100% ethanol (three times for 5 min each). After dehydration, samples were air-dried overnight at room temperature. SEM imaging was performed using an EVO 10 scanning electron microscope (Zeiss, Jena, Germany). Cell long-axis statistical analysis was conducted using ImageJ software (Version 1.42q, National Institutes of Health, MD, USA).
(§5) Having established the antibacterial activity of AA, MA, and UA, we next examined their effects on bacterial morphology. We employed SEM to examine the alterations induced by these compounds in S. aureus ATCC25923 and MRSA-4. Bacterial cultures were treated with AA, MA, or UA at 2 × MIC for 2 h, while untreated (PBS group) cultures served as negative controls. […] In PBS groups, both S. aureus ATCC25923 and MRSA-4 maintained typical spherical morphology with smooth and intact surfaces.

MRSA-4 [6] = experiment: SEM analysis, cell long axis; type: cell-based, Methicillin-resistant S. aureus; conditions: 2 × MIC, 2 h, mean ± SD, PBS control 0.53 ± 0.04
Experimental: as §4, §5

| SMILES | MIC ([1]; S. enterica subsp. Enterica (1.1114), ≥ 90% growth inhibition, 18–24 h, read-out: MIC) [µg/mL] | MIC (MRSA-4 [2]; MRSA-4, ≥ 90% growth inhibition, 18–24 h, read-out: MIC) [µg/mL] | MIC (S. epidermidis (1.143); S. epidermidis (1.143), ≥ 90% growth inhibition, 18–24 h, read-out: MIC) [µg/mL] | MIC (E. faecalis; E. faecalis, ≥ 90% growth inhibition, 18–24 h, read-out: MIC) [µg/mL] | MIC (P. aeruginosa PA14; P. aeruginosa PA14, ≥ 90% growth inhibition, 18–24 h, read-out: MIC) [µg/mL] | MIC (S. aureus ATCC25923 [3]; S. aureus ATCC25923, ≥ 90% growth inhibition, 18–24 h, read-out: MIC) [µg/mL] | MIC (E. coli ATCC25922; E. coli ATCC25922, ≥ 90% growth inhibition, 18–24 h, read-out: MIC) [µg/mL] | MIC [1] [µg/mL] | MIC (MRSA-4 [2]; MRSA) [µg/mL] | time to reduce bacterial counts below the detection limit (MRSA-4 [4]) [h] | length of long axis of cells (S. aureus ATCC25923 [5]) [μm] | MIC (S. epidermidis (1.143)) [µg/mL] | MIC (E. faecalis) [µg/mL] | MIC (P. aeruginosa PA14; PA14) [µg/mL] | MIC (S. aureus ATCC25923 [3]; ATCC25923) [µg/mL] | MIC (E. coli ATCC25922; ATCC25922) [µg/mL] | length of long axis of cells (MRSA-4 [6]) [μm] |
| --- | --- | --- | --- | --- | --- | --- | --- | --- | --- | --- | --- | --- | --- | --- | --- | --- | --- |
| Cc1onc(-c2ccccc2)c1C(=O)N[C@@H]1C(=O)N2[C@@H]1SC(C)(C)[C@@H]2C(=O)O [Oxa, Oxacillin, reference compound] | > 64 | 64 (≈ 159 µM) | 0.25 (≈ 0.623 µM) | 8 (≈ 19.9 µM) | > 64 | 0.125 (≈ 0.311 µM) | > 64 | – | – | – | – | – | – | – | – | – | – |
| CN[C@H](CC(C)C)C(=O)N[C@H]1C(=O)N[C@@H](CC(N)=O)C(=O)N[C@H]2C(=O)N[C@H]3C(=O)N[C@H](C(=O)N[C@H](C(=O)O)c4cc(O)cc(O)c4-c4cc3ccc4O)[C@H](O)c3ccc(c(Cl)c3)Oc3cc2cc(c3O[C@@H]2O[C@H](CO)[C@@H](O)[C@H](O)[C@H]2O[C@H]2C[C@](C)(N)[C@H](O)[C@H](C)O2)Oc2ccc(cc2Cl)[C@H]1O [Van, Vancomycin, reference compound] | – | – | – | – | – | – | – | > 16 | 2 (≈ 1.38 µM) | ≤ 8 | 0.61 ± 0.06 | 2 (≈ 1.38 µM) | 1 (≈ 0.69 µM) | > 16 | 2 (≈ 1.38 µM) | > 16 | 0.57 ± 0.06 |
